{
  "source": "patent US9873709B2",
  "about": "(priority 2013, dated 2018)",
  "note": "Counter-ions that a name gives are not always drawn.",
  "data": [
    {"target": "isolated recombinant JAK2 kinase domain (Homo sapiens (Human), UniProt O60674)", "sequence (O60674 849-1124)": "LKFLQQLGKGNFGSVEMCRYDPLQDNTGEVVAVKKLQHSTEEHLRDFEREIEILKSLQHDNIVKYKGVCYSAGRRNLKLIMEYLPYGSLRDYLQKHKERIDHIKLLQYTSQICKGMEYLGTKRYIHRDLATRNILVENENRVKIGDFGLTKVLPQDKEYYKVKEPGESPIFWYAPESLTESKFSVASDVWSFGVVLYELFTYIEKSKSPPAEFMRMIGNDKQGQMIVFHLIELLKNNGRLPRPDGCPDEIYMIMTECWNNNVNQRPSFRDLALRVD", "assay": "not given", "details": "read-out: JAK2 Ki", "units": {"Ki": "nM"}, "values": [
      {"smiles": "CN1CCC(N(C)C(=O)c2ccc(Nc3nc4c(Oc5ccccc5)cccn4n3)cc2)CC1", "note": "[Example 1-248, N-Methyl-N-(1-methyl-piperidin-4-yl)-4-(8-phenoxy-[1,2,4]triazolo[1,5-a]pyridine-2-ylamino)-benzamide]", "Ki": 22.1},
      {"smiles": "CN1CCC(N(C)C(=O)c2ccc(Nc3nc4c(Oc5ccc6oc(=O)n(Cc7ccccc7)c6c5)cccn4n3)cc2)CC1", "note": "[Example 1-264, 4-([8-[(3-benzyl-2-oxo-2,3-dihydro-1,3-benzoxazol-5-yl)oxy]-[1,2,4]triazolo[1,5-a]pyridin-2-yl]amino)-N-methyl-N-(1-methylpiperidin-4-yl)benzamide]", "Ki": 121}
    ]},
    {"target": "isolated recombinant JAK2 kinase domain (Homo sapiens (Human), UniProt O60674)", "assay": "not given", "details": "read-out: JAK2 Ki; isolated recombinant JAK2 kinase domain, 25 μM ATP", "units": {"Ki": "nM"}, "values": [
      {"smiles": "COC1(c2ccccc2)CCN(c2cccn3nc(Nc4ccc(C(=O)N(C)C5CCN(C)CC5)cc4)nc23)CC1", "note": "[Example 1-5, 4-[[8-(4-methoxy-4-phenyl-1-piperidyl)-[1,2,4]triazolo[1,5-a]pyridin-2-yl]amino]-N-methyl-N-(1-methyl-4-piperidyl)benzamide; hydrochloride]", "Ki": 5.15},
      {"smiles": "COC1CCN(c2cccn3nc(Nc4ccc(C(=O)N(C)C5CCN(C)CC5)cc4)nc23)CC1", "note": "[Example 1-8, 4-[[8-(4-methoxy-1-piperidyl)-[1,2,4]triazolo[1,5-a]pyridin-2-yl]amino]-N-methyl-N-(1-methyl-4-piperidyl)benzamide]", "Ki": 23.1},
      {"smiles": "CN1CCC(N(C)C(=O)c2ccc(Nc3nc4c(N5CCC(O)(c6ccc(C#N)cc6)CC5)cccn4n3)cc2)CC1", "note": "[Example 1-21, 4-[[8-[4-(4-cyanophenyl)-4-hydroxy-1-piperidyl]-[1,2,4]triazolo[1,5-a]pyridin-2-yl]amino]-N-methyl-N-(1-methyl-4-piperidyl)benzamide]", "Ki": 6.49},
      {"smiles": "CN1CCC(N(C)C(=O)c2ccc(Nc3nc4c(N5CCC(OCC#N)CC5)cccn4n3)cc2)CC1", "note": "[Example 1-23, 4-[[8-[4-(cyanomethoxy)-1-piperidyl]-[1,2,4]triazolo[1,5-a]pyridin-2-yl]amino]-N-methyl-N-(1-methyl-4-piperidyl)benzamide]", "Ki": 2.5},
      {"smiles": "CN1CCC(N(C)C(=O)c2ccc(Nc3nc4c(N5CCC6(CC5)CNC(=O)O6)cccn4n3)cc2)CC1", "note": "[Example 1-28, N-methyl-N-(1-methyl-4-piperidyl)-4-[[8-(2-oxo-1-oxa-3,8-diazaspiro[4.5]decan-8-yl)-[1,2,4]triazolo[1,5-a]pyridin-2-yl]amino]benzamide]", "Ki": 8.21},
      {"smiles": "CN1CCC(N(C)C(=O)c2ccc(Nc3nc4c(N5CCC(CC(N)=O)(c6ccccc6)CC5)cccn4n3)cc2)CC1", "note": "[Example 1-30, 4-[[8-[4-(2-amino-2-oxo-ethyl)-4-phenyl-1-piperidyl]-[1,2,4]triazolo[1,5-a]pyridin-2-yl]amino]-N-methyl-N-(1-methyl-4-piperidyl)benzamide]", "Ki": 0.27},
      {"smiles": "CN1CCC(N(C)C(=O)c2ccc(Nc3nc4c(N5CCN6C(=O)NCCC6C5)cccn4n3)cc2)CC1", "note": "(stereo not drawn) [Example 1-31, N-methyl-N-(1-methyl-4-piperidyl)-4-[[8-(6-oxo-3,4,7,8,9,9a-hexahydro-1H-pyrazino[1,2-c]pyrimidin-2-yl)-[1,2,4]triazolo[1,5-a]pyridin-2-yl]amino]benzamide]", "Ki": 52.4},
      {"smiles": "CN1CCC(N(C)C(=O)c2ccc(Nc3nc4c(N5CCN6C(=O)COC[C@@H]6C5)cccn4n3)cc2)CC1", "note": "[Example 1-32, 4-[[8-[(9aS)-4-oxo-6,7,9,9a-tetrahydro-1H-pyrazino[2,1-c][1,4]oxazin-8-yl]-[1,2,4]triazolo[1,5-a]pyridin-2-yl]amino]-N-methyl-N-(1-methyl-4-piperidyl)benzamide]", "Ki": 28.8},
      {"smiles": "CN1CCC(N(C)C(=O)c2ccc(Nc3nc4c(N5CCN6C(=O)COC[C@H]6C5)cccn4n3)cc2)CC1", "note": "[Example 1-33, 4-[[8-[(9aR)-4-oxo-6,7,9,9a-tetrahydro-1H-pyrazino[2,1-c][1,4]oxazin-8-yl]-[1,2,4]triazolo[1,5-a]pyridin-2-yl]amino]-N-methyl-N-(1-methyl-4-piperidyl)benzamide]", "Ki": 38.7},
      {"smiles": "CN1CCC(N(C)C(=O)c2ccc(Nc3nc4c(N5CCC(O)(c6ccccc6Cl)CC5)cccn4n3)cc2)CC1", "note": "[Example 1-35, 4-[[8-[4-(2-chlorophenyl)-4-hydroxy-1-piperidyl]-[1,2,4]triazolo[1,5-a]pyridin-2-yl]amino]-N-methyl-N-(1-methyl-4-piperidyl)benzamide]", "Ki": 27.7},
      {"smiles": "Cc1ccc(C2(O)CCN(c3cccn4nc(Nc5ccc(C(=O)N(C)C6CCN(C)CC6)cc5)nc34)CC2)cc1", "note": "[Example 1-39, 4-[[8-[4-hydroxy-4-(p-tolyl)-1-piperidyl]-[1,2,4]triazolo[1,5-a]pyridin-2-yl]amino]-N-methyl-N-(1-methyl-4-piperidyl)benzamide]", "Ki": 3.52},
      {"smiles": "COc1ccc(C2(O)CCN(c3cccn4nc(Nc5ccc(C(=O)N(C)C6CCN(C)CC6)cc5)nc34)CC2)cc1", "note": "[Example 1-40, 4-[[8-[4-hydroxy-4-(4-methoxyphenyl)-1-piperidyl]-[1,2,4]triazolo[1,5-a]pyridin-2-yl]amino]-N-methyl-N-(1-methyl-4-piperidyl)benzamide]", "Ki": 4.58},
      {"smiles": "CN1CCC(N(C)C(=O)c2ccc(Nc3nc4c(N5CCC(C(=O)N6CC(C)(C)C6)CC5)cccn4n3)cc2)CC1", "note": "[Example 1-42, 4-{8-[4-(3,3-Dimethyl-azetidine-1-carbonyl)-piperidin-1-yl]-1,8a-dihydro [1,2,4]triazolo[1,5a]pyridine-2-ylamino}-N-methyl-N-(1-methyl-piperidin-4-yl)-benzamide]", "Ki": 1090},
      {"smiles": "CN1CCC(N(C)C(=O)c2ccc(Nc3nc4c(N5CCC(C#N)(c6ccccc6)CC5)cccn4n3)cc2)CC1", "note": "[Example 1-45, 4-[[8-(4-cyano-4-phenyl-1-piperidyl)-[1,2,4]triazolo[1,5-a]pyridin-2-yl]amino]-N-methyl-N-(1-methyl-4-piperidyl)benzamide]", "Ki": 20.4},
      {"smiles": "CN1CCC(N(C)C(=O)c2ccc(Nc3nc4c(N5CCc6ccccc6C5)cccn4n3)cc2)CC1", "note": "[Example 1-46, 4-[[8-(3,4-dihydro-1H-isoquinolin-2-yl)-[1,2,4]triazolo[1,5-a]pyridin-2-yl]amino]-N-methyl-N-(1-methyl-4-piperidyl)benzamide]", "Ki": 10.1},
      {"smiles": "O=C(c1ccc(Nc2nc3c(N4CCC(O)(c5ccc(Cl)cc5)CC4)cccn3n2)cc1)N1CCN(c2ccccn2)CC1", "note": "[Example 1-112, [4-[[8-[4-(4-chlorophenyl)-4-hydroxy-1-piperidyl]-[1,2,4]triazolo[1,5-a]pyridin-2-yl]amino]phenyl]-[4-(2-pyridyl)piperazin-1-yl]methanone]", "Ki": 3.8},
      {"smiles": "CN1CCC(N(C)C(=O)c2ccc(Nc3nc4c(N5CCC(CC#N)(C6CCCC6)CC5)cccn4n3)cc2)CC1", "note": "[Example 1-257, 4-([8-[4-(cyanomethyl)-4-cyclopentylpiperidin-1-yl]-[1,2,4]triazolo[1,5-a]pyridin-2-yl]amino)-N-methyl-N-(1-methylpiperidin-4-yl)benzamide]", "Ki": 2.34},
      {"smiles": "CN1CCC(N(C)C(=O)c2ccc(Nc3nc4c(N5CCC(C)(C(=O)NCc6ccccc6)CC5)cccn4n3)cc2)CC1", "note": "[Example 1-259, N-benzyl-4-methyl-1-[2-[4-[methyl-(1-methyl-4-piperidyl)carbamoyl]anilino]-[1,2,4]triazolo[1,5-a]pyridin-8-yl]piperidine-4-carboxamide]", "Ki": 10.7},
      {"smiles": "CC(=O)NC1(C)CCN(c2cccn3nc(Nc4ccc(C(=O)N(C)C5CCN(C)CC5)cc4)nc23)CC1", "note": "[Example 1-260, 4-[[8-(4-acetamido-4-methylpiperidin-1-yl)-[1,2,4]-triazolo[1,5-a]pyridin-2-yl]amino]-N-methyl-N-(1-methylpiperidin-4-yl)benzamide]", "Ki": 16.3},
      {"smiles": "CN1CCC(N(C)C(=O)c2ccc(Nc3nc4c(N5CCC(C)(N(C)S(=O)(=O)c6ccccc6)CC5)cccn4n3)cc2)CC1", "note": "[Example 1-261]", "Ki": 3.56},
      {"smiles": "CN1CCC(N(C)C(=O)c2ccc(Nc3nc4c(N5CCC(CO)(CNCC(F)(F)F)CC5)cccn4n3)cc2)CC1", "note": "[Example 1-266, 4-([8-[4-(hydroxymethyl)-4-[[(2,2,2-trifluoroethyl)amino]methyl]piperidin-1-yl]-[1,2,4]triazolo[1,5-a]pyridin-2-yl]amino)-N-methyl-N-(1-methylpiperidin-4-yl)benzamide]", "Ki": 2.54},
      {"smiles": "CN1CCC(N(C)C(=O)c2ccc(Nc3nc4c(N5CCC(C(=O)O)(c6ccc(Cl)cc6)CC5)cccn4n3)cc2)CC1", "note": "[Example 1-269, 4-(4-chlorophenyl)-1-[2-([4-[methyl(1-methylpiperidin-4-yl)carbamoyl]phenyl]amino)-[1,2,4]-triazolo[1,5-a]pyridin-8-yl]piperidine-4-carboxylic acid]", "Ki": 13.2},
      {"smiles": "CN1CCC(N(C)C(=O)c2ccc(Nc3nc4c(N5CC6CC5CN6Cc5ccccc5)cccn4n3)cc2)CC1", "note": "(stereo not drawn) [Example 1-293, 4-[[8-(5-benzyl-2,5-diazabicyclo[2.2.1]heptan-2-yl)-[1,2,4]triazolo[1,5-a]pyridin-2-yl]amino]-N-methyl-N-(1-methyl-4-piperidyl)benzamide]", "Ki": 110},
      {"smiles": "CN1CCC(N(C)C(=O)c2ccc(Nc3nc4c(N5CCC(C)(NC(=O)c6ccccc6)CC5)cccn4n3)cc2)CC1", "note": "[Example 1-302, 4-[[8-(4-benzamido-4-methyl-1-piperidyl)-[1,2,4]triazolo[1,5-a]pyridin-2-yl]amino]-N-methyl-N-(1-methyl-4-piperidyl)benzamide]", "Ki": 6.37},
      {"smiles": "CN1CCC(N(C)C(=O)c2ccc(Nc3nc4c(N5CCC(C)(NS(=O)(=O)c6ccccc6)CC5)cccn4n3)cc2)CC1", "note": "[Example 1-303, 4-[[8-[4-(benzenesulfonamido)-4-methyl-1-piperidyl]-[1,2,4]triazolo[1,5-a]pyridin-2-yl]amino]-N-methyl-N-(1-methyl-4-piperidyl)benzamide]", "Ki": 4.98},
      {"smiles": "NCC1(c2ccccc2)CCN(c2cccn3nc(NC(=O)C4CC4)nc23)CC1", "note": "[Example 3-1, N-[8-[4-(aminomethyl)-4-phenyl-1-piperidyl]-[1,2,4]triazolo[1,5-a]pyridin-2-yl]cyclopropane carboxamide; hydrochloride]", "Ki": 145}
    ]},
    {"system": "JAK1-dependent STAT6 phosphorylation downstream of IL-13 stimulation in TF-1 human erythroleukemia cells", "assay": "cells", "details": "TF-1, read-out: IL-13-pSTAT6 IC50", "units": {"IC50": "nM"}, "values": [
      {"smiles": "COC1(c2ccccc2)CCN(c2cccn3nc(Nc4ccc(C(=O)N(C)C5CCN(C)CC5)cc4)nc23)CC1", "note": "[Example 1-5, 4-[[8-(4-methoxy-4-phenyl-1-piperidyl)-[1,2,4]triazolo[1,5-a]pyridin-2-yl]amino]-N-methyl-N-(1-methyl-4-piperidyl)benzamide; hydrochloride]", "IC50": 767},
      {"smiles": "COC1CCN(c2cccn3nc(Nc4ccc(C(=O)N(C)C5CCN(C)CC5)cc4)nc23)CC1", "note": "[Example 1-8, 4-[[8-(4-methoxy-1-piperidyl)-[1,2,4]triazolo[1,5-a]pyridin-2-yl]amino]-N-methyl-N-(1-methyl-4-piperidyl)benzamide]", "IC50": 756},
      {"smiles": "CN1CCC(N(C)C(=O)c2ccc(Nc3nc4c(N5CCC(O)(c6ccc(C#N)cc6)CC5)cccn4n3)cc2)CC1", "note": "[Example 1-21, 4-[[8-[4-(4-cyanophenyl)-4-hydroxy-1-piperidyl]-[1,2,4]triazolo[1,5-a]pyridin-2-yl]amino]-N-methyl-N-(1-methyl-4-piperidyl)benzamide]", "IC50": 333},
      {"smiles": "CN1CCC(N(C)C(=O)c2ccc(Nc3nc4c(N5CCC(OCC#N)CC5)cccn4n3)cc2)CC1", "note": "[Example 1-23, 4-[[8-[4-(cyanomethoxy)-1-piperidyl]-[1,2,4]triazolo[1,5-a]pyridin-2-yl]amino]-N-methyl-N-(1-methyl-4-piperidyl)benzamide]", "IC50": 73.7},
      {"smiles": "CN1CCC(N(C)C(=O)c2ccc(Nc3nc4c(N5CCC(CC(N)=O)(c6ccccc6)CC5)cccn4n3)cc2)CC1", "note": "[Example 1-30, 4-[[8-[4-(2-amino-2-oxo-ethyl)-4-phenyl-1-piperidyl]-[1,2,4]triazolo[1,5-a]pyridin-2-yl]amino]-N-methyl-N-(1-methyl-4-piperidyl)benzamide]", "IC50": 252}
    ]}
  ]
}
